Measurements from paper PMC5215309 (European Journal of Nuclear Medicine and Molecular Imaging, 2016).

Biological target: T1, PDE10A (Macaca fascicularis, UniProt A0A2K5WSP5)
T1 construct: native enzyme in living brain (in vivo PET; striatum, globus pallidus, substantia nigra)
T1 sequence (A0A2K5WSP5 1-791): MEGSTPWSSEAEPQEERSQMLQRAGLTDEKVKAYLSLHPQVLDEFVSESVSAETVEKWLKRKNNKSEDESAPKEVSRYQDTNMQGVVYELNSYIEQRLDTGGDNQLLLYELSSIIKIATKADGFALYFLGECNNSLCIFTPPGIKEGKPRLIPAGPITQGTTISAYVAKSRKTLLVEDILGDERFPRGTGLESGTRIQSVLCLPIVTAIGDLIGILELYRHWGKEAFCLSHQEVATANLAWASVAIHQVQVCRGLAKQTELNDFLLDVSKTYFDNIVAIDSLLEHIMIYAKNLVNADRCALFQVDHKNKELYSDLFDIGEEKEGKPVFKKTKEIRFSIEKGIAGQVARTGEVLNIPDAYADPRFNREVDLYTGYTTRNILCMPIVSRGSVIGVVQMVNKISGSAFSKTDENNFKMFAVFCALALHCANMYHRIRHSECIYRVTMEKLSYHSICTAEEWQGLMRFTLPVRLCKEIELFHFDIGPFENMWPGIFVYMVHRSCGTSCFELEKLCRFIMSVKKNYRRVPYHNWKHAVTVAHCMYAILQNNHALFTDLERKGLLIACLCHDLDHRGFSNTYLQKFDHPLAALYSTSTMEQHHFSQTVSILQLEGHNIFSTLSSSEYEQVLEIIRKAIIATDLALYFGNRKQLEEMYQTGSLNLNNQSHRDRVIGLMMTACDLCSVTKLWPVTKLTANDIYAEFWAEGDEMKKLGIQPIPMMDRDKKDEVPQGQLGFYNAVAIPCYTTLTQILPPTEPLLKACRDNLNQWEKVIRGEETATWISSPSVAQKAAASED
Assay: in vivo PET competition with […]Lu AE92686, Lassen plot
Details: two monkeys; i.v. pretreatment, mean plasma concentrations 685 and 749 ng/mL

For `Cn1cc(-c2ccncc2)c(-c2ccc(OCc3ccc4ccccc4n3)cc2)n1` [MP-10], the “% PDE10A occupancy at […]” value was 93 and 95.
